Series [1] deals with arachidonic acid induced aggregation of human platelet rich plasma. The series can be described thus: Platelet aggregation inhibition test (arachidonic acid induced, human platelet rich plasma). The series is classed as cell-based. The conditions noted are these: AA = arachidonic acid. The protocol: Platelet aggregation inhibition test The ability of the test substance to inhibit arachidonic acid induced aggregation of human platelet rich plasma was tested in a HU aggregometer (from H. Upchurch & Co. Ltd.).

The target of the next series is PG-synthetase. The experiment in a line: Prostaglandin-synthetase inhibition test (Vane). The conditions noted are these: AA = arachidonic acid. Format: biochemical.
The test system of series [2] is acetic acid induced writhing movements. The series can be described thus: Writhing test in mice (acetic acid). The series is classed as in vivo, mice (NMRI/BOM). The conditions noted are these: Mus musculus, po, 20 min, read-out: Analgesic ED50, writhing test. The protocol:
(§1) Tests for analgesic activity
(§2) 1. Writhing test in mice. (SPF females of the strain NMRI/BOM, weighing 20-25 g). The test substance was administered by gavage 1/2 hour prior to an intraperitoneal injection of acetic acid. The number of writhing movements in 20 minutes was counted.
On the technique in general: Writhing tests count abdominal constrictions after an irritant is injected.

Series [3] deals with arachidonic acid induced bronchoconstrictions. The series can be described thus: Inhibition of arachidonic acid induced bronchoconstrictions in guinea-pigs. The series is classed as in vivo. The conditions noted are these: Cavia porcellus, read-out: Inhibition of arachidonic acid induced bronchoconstrictions ID50. The method, then:
Inhibition of arachidonic acid (AA) induced bronchoconstrictions in guinea-pigs. Test compounds were given intravenously to anaesthetized guinea-pigs 5 min. before intravenous injection of AA (200-500 μg/kg). Bronchial pressure was measured and percent inhibition calculated as compared to the mean of 3 preceding AA-induced control constrictions obtained after injection of vehicle in the same animal.

The nature of the next series: in vivo. The conditions noted are these: mouse; for LD50 at 168 h: po, read-out: Acute toxicity LD50. The protocol: Test for acute toxicity (LD50) in mice
The test substance was administered by gavage.

Series [4] has as its system carrageenin-injected rat paw. The series can be described thus: Test for antiinflammatory activity in rats (carrageenin paw). The series is classed as in vivo, rats (Sprague-Dawley). The conditions noted are these: po, read-out: Antiinflammatory test ED50. The protocol:
Test for antiinflammatory activity in rats SPF males of the strain Sprague-Dawley, weighing~150 g were used. The test was performed according to Winter et al.: Proc. Soc. […] The test substance was given by gavage 1 hour prior to injection of a carrageenin-suspension into the rat paw.
On the technique in general: In the carrageenan paw model, swelling and tenderness develop within hours.

The test system of another series is stomach ulcers. The experiment in a line: Ulcerogenic activity in rats. The series is classed as in vivo, rats (Sprague-Dawley). The conditions noted are these: rats, gavage, 5 hours. The method, then:
(§3) Ulcerogenic activity in rats
(§4) SPF males of the strain Sprague-Dawley weighing 180-250 g were used. 5 hours after administration by gavage of the test substance the rates were killed by an overdose of ether. The stomachs were removed and opened along the greater curvature. The number of ulcers was assessed and compared to control rats.

Series [5] in a line: Tests for analgesic activity (general). Format: in vivo, mice; rats. The conditions noted are these: compared with the compounds of the invention, or general. The method, then: as §1, §2
2. Randall-Selitto test in rats. (SPF males of the strain Sprague-Dawley, weighing 90-100 g). The test was performed on the whole as described by Randall and Selitto: Arch. Int. Pharmacodyn. Ther. 111, 409 (1957). An analgesia-meter of the make Ugo Basile was used and the test substance was administered by gavage 2 hours after injection of a suspension of brewer's yeast into the rat paw.

Series [6] can be described thus: Ulcerogenic activity in rats. The series is classed as in vivo, rats (Sprague-Dawley). The conditions noted are these: rat, in vivo, po. The method, then: as §3, §4
The subject of series [7] is brewer's yeast injected rat paw. The series can be described thus: Randall-Selitto test in rats (analgesia-meter, brewer's yeast paw). The conditions noted are these: po, gavage 2 hours after brewer's yeast in paw, read-out: Analgesic ED50, analgesia-meter. Format: in vivo, rats (Sprague-Dawley). The protocol: Tests for analgesic activity 2. Randall-Selitto test in rats. (SPF males of the strain Sprague-Dawley, weighing 90-100 g). The test was performed on the whole as described by Randall and Selitto: Arch. Int. Pharmacodyn. Ther. 111, 409 (1957).

Where [8] appears, read: mice, gavage 1/2 hour before i.p. acetic acid, writhings in 20 minutes.
The mark [9] stands for this setting: guinea-pigs, intravenous, 5 min before i.v. AA (200-500 μg/kg).

Like-named read-outs stand apart in the source and are kept apart here.

Take `COc1ccc(-c2nc(-c3cc(F)ccc3F)[nH]c2-c2ccc(OC)cc2)cc1` [Compound 7, 2-(2,5-Difluorphenyl)-4,5-bis(4-methoxyphenyl)imidazole]: in series [1], the “Inhibition of platelet aggregation IC100” value turned out to be 0.024 μg/190 μg AA. The “Inhibition of PG-synthetase IC50” value on PG-synthetase worked out at 1.71 μg/10 μg AA. Also, the ED50 turned out to be 16 mg/kg in series [2] (setting [8]) and 0.0024 mg/kg in series [3] (setting [9]).

The term LD50 denotes the dose expected to kill half of the subjects tested. Take `COc1ccc(-c2nc(-c3cc(F)cc(F)c3)[nH]c2-c2ccc(OC)cc2)cc1` [Compound 10, 2-(3,5-Difluorphenyl)-4,5-bis(4-methoxyphenyl)imidazole]: the “Inhibition of platelet aggregation IC100” value in [1] is reported as 0.12 μg/190 μg AA. Moreover, the “Inhibition of PG-synthetase IC50” value on PG-synthetase was 0.38 μg/10 μg AA. Also, the ED50 was determined as 10 mg/kg in series [2] (setting [8]) and 0.0097 mg/kg in series [3] (setting [9]). The LD50 at 168 h in the series “in vivo” is more than 2000 mg/kg.

As to `CC(=O)Oc1ccccc1C(=O)O` [Compound 15, Acetyl salicylic acid, reference compound], in [1], the “Inhibition of platelet aggregation IC100” value turned out to be 2.38 μg/190 μg AA. Also, the “Inhibition of PG-synthetase IC50” value at PG-synthetase amounted to 7.61 μg/10 μg AA. The ED50 in [4] is 350 mg/kg; in [2], 100 mg/kg; in series [3] (iv) it was 0.234 mg/kg. In the series on stomach ulcers, the “Ulcerogenic activity ED50” value is listed as 340 mg/kg.

Consider `COc1ccc(-c2nc(C(C)C)[nH]c2-c2ccc(OC)cc2)cc1` [Compound 12, 2-Isopropyl-4,5-bis(4-methoxyphenyl)imidazole, reference compound], for which, in series [5], the “Analgesic activity (in words)” value is given as “much weaker analgesic activity than the compounds of the present invention”. Also, the ED50 in series [2] (setting [8]) stood at 200 mg/kg.

Regarding `COc1ccc(-c2nc(-c3c(F)cccc3F)[nH]c2-c2ccc(OC)cc2)cc1` [Compound 8, 2-(2,6-Difluorphenyl)-4,5-bis(4-methoxyphenyl)imidazole], in series [1], the “Inhibition of platelet aggregation IC100” value worked out at 0.012 μg/190 μg AA. The “Inhibition of PG-synthetase IC50” value on PG-synthetase was 0.13 μg/10 μg AA. Besides, the ED50 in series [2] (setting [8]) came to 6.8 mg/kg; in [3] (setting [9]), 0.0049 mg/kg.

For `COc1ccc(-c2nc(-c3ccc(F)c(F)c3)[nH]c2-c2ccc(OC)cc2)cc1` [Compound 9, 2-(3,4-Difluorphenyl)-4,5-bis(4-methoxyphenyl)imidazole], in [1], the “Inhibition of platelet aggregation IC100” value is 0.006 μg/190 μg AA. Moreover, the “Inhibition of PG-synthetase IC50” value on PG-synthetase was found to be 0.11 μg/10 μg AA. For the same molecule, the ED50 in series [2] (setting [8]) is 1.9 mg/kg; in series [3] (setting [9]), 0.0115 mg/kg; in series [7], 0.062 mg/kg. The TD50 at 5 h in [6] stood at 45 mg/kg.

As to `COc1ccc2c(c1)c(CC(=O)O)c(C)n2C(=O)c1ccc(Cl)cc1` [Compound 13, Indomethacin, reference compound], in series [1], the “Inhibition of platelet aggregation IC100” value worked out at 1.19 μg/190 μg AA. Also, the “Inhibition of PG-synthetase IC50” value on PG-synthetase came out at 0.65 μg/10 μg AA. The ED50 turned out to be 28 mg/kg in series [4], 8 mg/kg in [2], 0.115 mg/kg in series [3] (iv) and 0.36 mg/kg in series [7]. Further, the “Ulcerogenic activity ED50” value with stomach ulcers is listed as 9.7 mg/kg.

With `COc1ccc(-c2nc(C(F)(F)F)[nH]c2-c2ccc(OC)cc2)cc1` [Compound 11, 2-Trifluormethyl-4,5-bis(4-methoxyphenyl)imidazole, reference compound], the “Analgesic activity (in words)” value in [5] is recorded as “weaker analgesic activity”. In addition, the “Inhibition of platelet aggregation IC100” value in series [1] came out at 0.06 μg/190 μg AA. The ED50 in series [2] (setting [8]) was 75 mg/kg. Besides, the “Toxicity (in words)” value in “in vivo” was “higher toxicity than the compounds of the present invention”.

As for `COc1ccc2cc([C@H](C)C(=O)O)ccc2c1` [Compound 14, Naproxen, reference compound], the “Inhibition of PG-synthetase IC50” value at PG-synthetase was found to be 0.49 μg/10 μg AA. The “Ulcerogenic activity ED50” value with stomach ulcers is listed as 19.5 mg/kg.

As to `CC(C)(C)NCC(O)c1ccc(O)c(CO)c1` (stereo not shown) [Compound 16, Salbutamol, reference compound], the ED50 in [3] (setting [9]) stood at 0.016 mg/kg.

In the case of `COc1ccc(-c2nc(-c3cccc(F)c3)[nH]c2-c2ccc(OC)cc2)cc1` [Compound 3, 2-(3-Fluorphenyl)-4,5-bis(4-methoxyphenyl)imidazole], the “Inhibition of platelet aggregation IC100” value in series [1] was 0.12 μg/190 μg AA. Besides, on PG-synthetase, the “Inhibition of PG-synthetase IC50” value came out at 0.21 μg/10 μg AA. For the same molecule, the ED50 in series [2] (setting [8]) amounted to 3.2 mg/kg; in series [3] (setting [9]), 0.0036 mg/kg.

For the molecule `COc1ccc(-c2nc(-c3ccc(F)cc3)n(CCC(=O)O)c2-c2ccc(OC)cc2)cc1` [Compound 1, 1-(2-Carboxyethyl)-2-(4-fluorphenyl)-4,5-bis(4-methoxyphenyl)imidazole, reference compound], the ED50 in series [2] (setting [8]) is more than 200 mg/kg.

In the case of `COc1ccc(-c2nc(-c3ccc(F)cc3)[nH]c2-c2ccc(OC)cc2)cc1` [Compound 4, 2-(4-Fluorphenyl)-4,5-bis(4-methoxyphenyl)imidazole], in series [1], the “Inhibition of platelet aggregation IC100” value is on record as 0.048 μg/190 μg AA. The “Inhibition of PG-synthetase IC50” value on PG-synthetase came to 0.18 μg/10 μg AA. Besides, the results for the ED50 in [2] (setting [8]) and in series [3] (setting [9]) were 5 mg/kg and 0.0047 mg/kg, respectively.

`COc1ccc(-c2nc(-c3ccc(F)cc3F)[nH]c2-c2ccc(OC)cc2)cc1` [Compound 6, 2-(2,4-Difluorphenyl)-4,5-bis(4-methoxyphenyl)imidazole]: in [1], the “Inhibition of platelet aggregation IC100” value is reported as 0.12 μg/190 μg AA. The “Inhibition of PG-synthetase IC50” value on PG-synthetase is recorded as 0.27 μg/10 μg AA. Besides, the ED50 in [2] (setting [8]) amounted to 4 mg/kg; in series [3] (setting [9]), 0.0021 mg/kg. Further, in [6], the TD50 at 5 h was found to be 1580 mg/kg.

`COc1ccc(-c2nc(-c3ccccc3F)[nH]c2-c2ccc(OC)cc2)cc1` [Compound 2, 2-(2-Fluorphenyl)-4,5-bis(4-methoxyphenyl)imidazole]: the “Inhibition of platelet aggregation IC100” value in [1] is on record as 0.024 μg/190 μg AA. The “Inhibition of PG-synthetase IC50” value on PG-synthetase is given as 0.23 μg/10 μg AA. Further, the ED50 was 15 mg/kg in [2] (setting [8]) and 0.0106 mg/kg in [3] (setting [9]).

As to `COc1ccc(-c2nc(-c3cccc(F)c3F)[nH]c2-c2ccc(OC)cc2)cc1` [Compound 5, 2-(2,3-Difluorphenyl)-4,5-bis(4-methoxyphenyl)imidazole], the “Inhibition of platelet aggregation IC100” value in series [1] was determined as 0.024 μg/190 μg AA. The “Inhibition of PG-synthetase IC50” value on PG-synthetase amounted to 0.21 μg/10 μg AA. Further, the ED50 amounted to 4.6 mg/kg in [2] (setting [8]) and 0.0087 mg/kg in series [3] (setting [9]). Besides, in “in vivo”, the LD50 at 168 h is 3120 mg/kg.
